From article PMC9698483, “Berbamine Reduces Chloroquine-Induced Itch in Mice through Inhibition of MrgprX1” (International Journal of Molecular Sciences, 2022)

Experiments:
HEK293T cells = test: Ionomycin-induced increase in intracellular calcium levels in HEK293T cells; format: cell-based; conditions: 10 μM ionomycin, 10 min pretreatment
Method: To investigate whether berbamine and closantel affect calcium signaling pathways, we observed the effects of berbamine and closantel on CQ- and ionomycin-induced increases in intracellular calcium concentrations in HEK-MrgprX1 and HEK293T cells, respectively.
Figure 2 Effect of berbamine and closantel on CQ- and ionomycin-induced increases in intracellular calcium levels: (A,B) Intracellular calcium levels were measured using Fluo−4 NW in HEK293T cells expressing MrgprX1. The cells were pretreated with the indicated concentrations of berbamine (BBM) and closantel (CLS) for 10 min prior to treatment with 300 μM CQ. (C) Summary of dose-response (mean ± S.E., n = 6). (D,E) Intracellular calcium levels were increased with 10 μM ionomycin in HEK239T cells. The cells were pretreated with the indicated concentrations of BBM and CLS for 10 min before treatment with ionomycin. (F) Summary of dose–response (mean ± S.E., n = 6).
Intracellular calcium levels were measured using a Fluo-4 NW calcium assay kit (Invitrogen, Carlsbad, CA) as per the manufacturer’s protocol in HEK293T and HT29 cells. […] After 1 h of incubation, Fluo-4 fluorescence was recorded with a FLUOstar Omega microplate reader equipped with syringe pumps and custom Fluo-4 excitation/emission filters (485/538 nm). […]

MrgprC11 = target: T1, MrgprC11 (Mus musculus, UniProt Q8CIP3); test: Activation of MrgprC11 in MrgprC11-expressing HEK293T cells (calcium); format: cell-based
T1 construct: expressed in transfected cells; host or cells: HEK293T
T1 sequence (Q8CIP3 1-322): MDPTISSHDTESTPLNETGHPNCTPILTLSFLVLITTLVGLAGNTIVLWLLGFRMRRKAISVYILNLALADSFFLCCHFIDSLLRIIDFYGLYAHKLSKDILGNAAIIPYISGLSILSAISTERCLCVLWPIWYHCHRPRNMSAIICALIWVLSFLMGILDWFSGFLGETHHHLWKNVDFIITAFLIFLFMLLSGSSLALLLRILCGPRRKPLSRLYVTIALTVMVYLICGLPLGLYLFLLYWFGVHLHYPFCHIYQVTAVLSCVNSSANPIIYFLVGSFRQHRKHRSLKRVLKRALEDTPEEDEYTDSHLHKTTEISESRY
Method: To investigate the effect of berbamine on other pruritogenic GPCRs, we observed the effect of berbamine on histamine H1 receptor (H1R), histamine H4 receptor (H4R), MrgprC11, MrgprX4, PAR2, and TGR5.
Figure 3 Effects of berbamine on the activity of other pruritogenic GPCRs: (A,B) Effect of berbamine on histamine 1 receptor (H1R) and histamine 4 receptor (H4R). H1R- and H4R-expressing HEK293T cells were pretreated with 30 μM BBM for 10 min prior to 100 μM histamine treatment. […] (C) Effect of berbamine on PAR2. HT29 cells were pretreated with BBM for 10 min prior to 30 μM PAR2-AP treatment. […] (D) Effect of berbamine on MrgprC11. MrgprC11-expressing HEK293T cells were pretreated with BBM for 10 min prior to 100 μM […] treatment. (E) Effect of berbamine on MrgprX4. MrgprX4-expressing HEK293T cells were pretreated with BBM for 10 min prior to 80 μM DCA treatment. (F) Effect of berbamine on TGR5. TGR5 activity was measured using a YFP fluorescence quenching assay. CHO-K1 cells coexpressing TGR5 and a halide sensor YFP were pretreated with BBM and 80 μM DCA for 10 min prior to I^- treatment. Results were summarized as means ± S.E. (n = 6). NTC, nontransfected cells.
Intracellular calcium levels were measured using a Fluo-4 NW calcium assay kit (Invitrogen, Carlsbad, CA) as per the manufacturer’s protocol in HEK293T and HT29 cells. […]

[1] = test system: ERK1/2 phosphorylation through MrgprA3; test: Immunoblot of ERK1/2 phosphorylation in HEK293T cells expressing MrgprA3; format: cell-based, mouse; conditions: HEK-MrgprA3 cells, 30 μM BBM for 10 min prior to CQ
histamine-induced itch = test: Histamine-induced pruritus in mice (scratching bouts); format: in vivo, BALB/c mice; conditions: 30 mg/kg i.p.
Method: (§1) To investigate the antipruritic effect of berbamine, we observed the effect of berbamine on pruritogen-induced scratching behavior in BALB/c mice. Mice were transferred to clear cages and treated with berbamine intraperitoneally after a 30 min acclimatization period. Mouse behavior was recorded for 30 min right after the subcutaneous injection of pruritogens to the nape 30 min after berbamine treatment (Figure 7A). […] We further investigated the effect of berbamine on pruritus caused by other pruritogens.
(§2) Figure 7 Effect of berbamine on acute pruritogen-induced pruritus in mice: (A) Scheme of acute pruritogen-induced pruritus mouse model. […] Statistical significance of differences between each group and CQ group was assessed using one-way ANOVA with Tukey’s post hoc test. * p < 0.05, ** p < 0.01, *** p < 0.001. […] Statistical significance of differences was determined using Student’s t-test. […]
(§3) […] six-week-old BALB/c male mice were purchased from DBL (Chungcheong-do, Republic of Korea), and an additional 1 week was given for accommodation. […] After 30 min, pruritogen compounds (i.e., CQ, histamine, PAR2-AP, and DCA) were subcutaneously administered into the nape, and scratching bouts were recorded for 30 min. […] The total number of scratching bouts was counted by recording the number of scratching bouts in the recorded video over 30 min of observation time.

DCA-induced itch = test: DCA-induced pruritus in mice (scratching bouts); format: in vivo, BALB/c mice; conditions: 30 mg/kg i.p., DCA 50 μg/50 μL
Method: as §1, §2, §3

**Q.** For `COc1cc2c3cc1Oc1c(OC)c(OC)cc4c1[C@@H](Cc1ccc(O)c(c1)Oc1ccc(cc1)C[C@@H]3N(C)CC2)N(C)CC4` [berbamine], which “effect on ionomycin-induced increase in intracellular calcium levels” value (HEK293T cells) is on record?
**A.** no effect

**Q.** What about the “effect on PAR2-AP-induced activation of MrgprC11” value (MrgprC11; 30 μM, 10 min prior to 100 μM PAR2-AP) of the same compound?
**A.** did not affect

**Q.** And the “inhibitory effect on the activation of MrgprC11 by BAM8-22” value (MrgprC11; concentrations up to 30 μM, 500 nM BAM8-22)?
**A.** minimal inhibitory effect

**Q.** And the “effect on CQ-induced ERK1/2 phosphorylation through MrgprA3” value [1]?
**A.** significantly reduced

**Q.** What about the “effect on total scratching bouts induced by histamine” value (histamine-induced itch) of the same compound?
**A.** no significant effect

**Q.** And the “effect on total scratching bouts induced by DCA” value (DCA-induced itch)?
**A.** no significant effect
